Results: US20060121449A1, “Method for selection of compounds which inhibit clonal cell growth and use thereof” (priority 2002, published 2006)
“Also recorded” adds a separate entry of the source. Like-named read-outs stand apart in the source and are kept apart here.

How the values were obtained:
[1] = test system: polyoma virus transformed BHK21/c13 cells, clone S100T1; test: Clonal test: clonal growth of S100T1 cells in soft agar (Exp 2, 4, 6, 15, 16); type: cell-based, hamster; conditions: for Growth, results after 3 days / Concentration inhibiting (stopping) clonal growth: Exp 2; for Growth, results after 3 days: 400000 S100T1 cells, 1.5% agarose; for Concentration inhibiting (stopping) clonal growth: S100T1, 1.5% agarose, 3 days; for Clonal growth, result day 7: Exp 4, 3 μM, 120000 S100T1 cells, 1.1% agarose; for Significance / Growth: 4-OH—OPB No 11; for Clonal inhibition: S100T1
Ehrlich ascites tumour = conditions: for Rescue of mice from transplanted Ehrlich tumour: suboptimal (moderate) dose alone, started the day after transplantation
Procedure: Tumour cells harvested from ascitic mouse were mainly solitary.
The experiment describes transplantation of the malignant mouse Ehrlich ascites tumour to two adult male mice (NMRI/Bom). Each of them received 100000 cells intraperitonally. One mouse was treated two times a week with 4-OH-OPB intraperitonally.
Cells were injected 90 minutes after the addition of 4-OH-OPB to the suspension. The control received the same cell suspension without 4-OH-OPB.
At the same time, dilutions of 4-OH-OPB were injected intraperitonally to the transplanted mice in order to find the smallest active dose.
The cells from ascites in the untreated control mouse was frozen on serum with 10% DMSO. The cells were thawed in water of 37° C., diluted in serum, and pelleted by low speed centrifugation after the addition of 2 ml FBS, to remove DMSO.
Each animal received such cells suspended in portions of 1 ml in RPMI (pH˜6.9).
The frozen and thawed Ehrlich ascites cells are diluted in a volume of 1 ml RPMI (pH˜6.9) for each animal. No calf serum was added to the medium to avoid immunisation of the mice.
Cell number: 90000 tumour cells in 0.7 ml RPMI were injected intraperitonally to each animal.
The total cell number in the ampoule was 7.5 million cells. The cells were thawed, and 2 ml FBS was added before low speed centrifugation. […] Than separate vessels were prepared for each animal. The cell tube for animal number 3 received Colchicine as indicated in the table on day 0 one hour before the cells were injected.
After mixing the same volume was transferred from this tube to the last tube.
The content of the last two tubes was injected intraperitonally to each of the mice number 1 and 2 respectively.

[2] = Exp 7, 1.62 μl 20 mM i.p. two times a week, 45.5 at day 0
[3] = Exp 8 mouse 1: 1.26 μl 20 mM i.p. from day 0 (42 μM i.p.)
[4] = Exp 8 mouse 2: 0.42 μl 20 mM i.p. from day 0 (14 μM i.p.)
[5] = Exp 8 mouse 3: 0.14 μl 20 mM i.p. from day 0 (4.7 μM i.p.)
[6] = Exp 8 mouse 4: 0.047 μl 20 mM i.p. from day 0 (1.6 μM i.p.)
[7] = Exp 8 mouse 6: 1.13 μl 20 mM i.p., first injection 24 h after tumour (37.7 μM i.p.)
[8] = Exp 8 mouse 7: 1.09 μl 20 mM i.p., first injection 3 days after tumour
[9] = Exp 8 mouse 7: 1.09 μl 20 mM i.p., first injection 3 days after tumour (36.3 μM i.p.)
[10] = Exp 8 mouse 7: 1.09 μl 20 mM i.p., first injection 3 days after tumour (36.3 μM i.p.), listed as 4-OH—OPB

Structure (SMILES): CCCCC1(O)C(=O)N(c2ccccc2)N(c2ccc(O)cc2)C1=O (stereo not drawn) [4-OH-OPB, 4-butyl-4-hydroxy-2(p-hydroxyphenyl)-1-phenyl-3,5-pyrazolidinedione]
- Growth, results after 3 days ([1]; 500 nM): inhibited
- Growth, results after 3 days ([1]; 1000 nM): inhibited
- Growth, results after 3 days ([1]; 1500 nM): inhibited
- Growth, results after 3 days ([1]; 2000 nM): inhibited
- Growth, results after 3 days ([1]; 3000 nM): inhibited
- Concentration inhibiting (stopping) clonal growth [1]: ≥ 500 nM
- Concentration inhibiting (stopping) clonal growth ([1]; listed as 4-OH—OPB): Even 500 nM stopped clonal growth
- Clonal growth, result day 7 [1]: no growth was observed
- Clonal growth, result day 7 ([1]; listed as 4-OH—OPB): Single cells only; also recorded: Completely stopped clonal growth in
- Susceptibility after single cells had formed small clones (colonies) ([1]; Exp 6): no longer susceptible
- Concentration giving good clonal inhibition ([1]; Exp 6, S100T1, 120000 cells, treatment immediately after seeding): above 1 μM
- Growth inhibition at 30 μM when treatment delayed 24 hours ([1]; Exp 6, S100T1, small colonies already formed): small growth inhibition; also recorded: some inhibition of growth
- Susceptibility after single cells had formed small clones (colonies) ([1]; Exp 6, listed as 4-OH—OPB): they were not susceptible any more.
- Effect on clonal growth at 2 and 20 μM ([1]; Exp 15, 32000 S100T1 cells/well): inhibiting clonal growth
- Control compared with the other compounds ([1]; Exp 16): clearly better than any other
- Significance ([1]; Exp 16 day 14, 0.67 μM): yes
- Growth ([1]; Exp 16 day 14, 0.67 μM in wells): −
- Significance ([1]; Exp 16 day 14, 6.7 μM): yes
- Growth ([1]; Exp 16 day 14, 6.7 μM in wells): −
- Significance ([1]; Exp 16 day 21, 0.67 μM): yes
- Growth ([1]; Exp 16 day 21, 0.67 μM in wells): −
- Significance ([1]; Exp 16 day 21, 6.7 μM): yes
- Growth ([1]; Exp 16 day 21, 6.7 μM in wells): −
- Clonal inhibition ([1]; 0.3 μM added after 24 hours, read after 48 hours): 0
- Clonal inhibition ([1]; 0.3 μM added immediately, read after 24 hours): 0
- Clonal inhibition ([1]; 0.3 μM added immediately, read after 48 hours): 0
- Clonal inhibition ([1]; 1 μM added after 24 hours, read after 48 hours): 0
- Clonal inhibition ([1]; 1 μM added immediately, read after 24 hours): +
- Clonal inhibition ([1]; 1 μM added immediately, read after 48 hours): 0
- Clonal inhibition ([1]; 3 μM added after 24 hours, read after 48 hours): 0
- Clonal inhibition ([1]; 3 μM added immediately, read after 24 hours): ++
- Clonal inhibition ([1]; 3 μM added immediately, read after 48 hours): +−
- Clonal inhibition ([1]; 10 μM added after 24 hours, read after 48 hours): 0
- Clonal inhibition ([1]; 10 μM added immediately, read after 24 hours): +++
- Clonal inhibition ([1]; 10 μM added immediately, read after 48 hours): +
- Clonal inhibition ([1]; 30 μM added after 24 hours, read after 48 hours): +
- Clonal inhibition ([1]; 30 μM added immediately, read after 48 hours): +++
- Anti-clonal effect, summary of Exp 16 ([1]; S100T1 in soft agar): 4-OH—OPB inhibited clones without escaping colonies.
- Inhibition of clonal growth at 300 nM ([1]; other/earlier experiments): no inhibition
- Weight of treated mouse, day 14 (Ehrlich ascites tumour; [2]): 42.6 g
- Weight of treated mouse, day 18 (Ehrlich ascites tumour; [2]): 44.3 g
- Tumour findings in treated mouse after 19 days (Ehrlich ascites tumour; Exp 7, 1.62 μl 20 mM i.p. two times a week, 100000 Ehrlich cells i.p.): No tumour was detected; also recorded: completely normal without any palpable tumour or signs of ascites or anaemia; also recorded: no pathological signs; also recorded: no tumour or ascites observable
- Ascites (Ehrlich ascites tumour; Exp 7 treated animal, day 19): 0 grams
- Fibrinous material under diaphragm (Ehrlich ascites tumour; Exp 7 treated animal, day 19): 0 grams
- Size of organs: Hart (Ehrlich ascites tumour; Exp 7 treated animal, day 19): 0.20 grams
- Size of organs: Kidneys (Ehrlich ascites tumour; Exp 7 treated animal, day 19): 0.57 grams
- Size of organs: Liver (Ehrlich ascites tumour; Exp 7 treated animal, day 19): 2.38 grams
- Size of organs: Lungs (Ehrlich ascites tumour; Exp 7 treated animal, day 19): 0.3 grams
- Size of organs: Omentum (Ehrlich ascites tumour; Exp 7 treated animal, day 19): 2.36 grams
- Size of organs: Spleen (Ehrlich ascites tumour; Exp 7 treated animal, day 19): 0.184 grams
- Tumour in groin (Ehrlich ascites tumour; Exp 7 treated animal, day 19): 0 grams
- Dose that did not cure when begun the next day or 3 days after transplantation, relative to minimum curative dose (Ehrlich ascites tumour; Exp 8): about 9 times
- Smallest effective dose, in extracellular fluid (Ehrlich ascites tumour; Exp 8): 0.37 µM
- Start of treatment needed for complete rescue (Ehrlich ascites tumour; Exp 8): The treatment had to start immediately
- Outcome when therapy started 24 hours after transplantation or later (Ehrlich ascites tumour; Exp 8, doses in abdomen of 36-38 μM): development of ascites or ascites with solid tumour in addition
- Smallest effective (inhibiting) concentration in the peritoneum (Ehrlich ascites tumour; Exp 8, injected together with the cells and then twice a week): dose was 4.8 μM.
- Day 15 status (Ehrlich ascites tumour; [3]): healthy
- Day 15 weight (Ehrlich ascites tumour; [3]): 33.9 gram
- Day 15 weight/initial weight (Ehrlich ascites tumour; [3]): 0.96
- Result (tumour growth) (Ehrlich ascites tumour; [3]): No tumour
- Section day 17 (Ehrlich ascites tumour; [3]): No pathology found, neither ascites nor solid tumours
- Section day 17 (Ehrlich ascites tumour; Exp 8 mouse 1: 1.26 μl 20 mM i.p. from day 0 (42 μM i.p.), listed as 4-OH—OPB): healthy, no tumour
- Day 15 status (Ehrlich ascites tumour; [4]): healthy
- Day 15 weight (Ehrlich ascites tumour; [4]): 38.7 gram
- Day 15 weight/initial weight (Ehrlich ascites tumour; [4]): 0.97
- Section day 17 (Ehrlich ascites tumour; [4]): No pathology found, neither ascites nor solid tumours
- Section day 17 (Ehrlich ascites tumour; Exp 8 mouse 2: 0.42 μl 20 mM i.p. from day 0 (14 μM i.p.), listed as 4-OH—OPB): healthy, no tumour
- Day 15 status (Ehrlich ascites tumour; [5]): healthy
- Day 15 weight (Ehrlich ascites tumour; [5]): 29.3 gram
- Day 15 weight/initial weight (Ehrlich ascites tumour; [5]): 1.1
- Section day 17 (Ehrlich ascites tumour; [5]): No pathology was found, neither ascites nor solid tumours
- Section day 17 (Ehrlich ascites tumour; Exp 8 mouse 3: 0.14 μl 20 mM i.p. from day 0 (4.7 μM i.p.), listed as 4-OH—OPB): healthy, no tumour
- Ascites relative to control (Ehrlich ascites tumour; [6]): Ascites (0.66 of contr.) + solid
- Day 15 status (Ehrlich ascites tumour; [6]): Ascites
- Day 15 weight (Ehrlich ascites tumour; [6]): 37.4 gram
- Day 15 weight/initial weight (Ehrlich ascites tumour; [6]): 1.33
- Result (tumour growth) (Ehrlich ascites tumour; [6]): Lens-sized tumour at injection site in left abdominal wall
- Section day 17: ascites (Ehrlich ascites tumour; Exp 8 mouse 4: 0.047 μl 20 mM i.p. from day 0 (1.6 μM i.p.), control 6.8 ml): 4.5 mL
- Section day 17: ascites (Ehrlich ascites tumour; Exp 8 mouse 4: 0.047 μl 20 mM i.p. from day 0 (1.6 μM i.p.), control 6.8 ml, listed as 4-OH—OPB): 4.5 ml ascites
- Result (tumour growth) (Ehrlich ascites tumour; Exp 8 mouse 4: 0.047 μl 20 mM i.p. from day 0 (1.6 μM i.p.), listed as 4-OH—OPB): Ascites (0.66 of contr.) + solid
- Ascites relative to control (Ehrlich ascites tumour; [7]): Ascites (0.47 of contr.) + solid
- Day 15 status (Ehrlich ascites tumour; [7]): Healthy
- Day 15 weight (Ehrlich ascites tumour; [7]): 34.5 gram
- Day 15 weight/initial weight (Ehrlich ascites tumour; [7]): 1.09
- Result (tumour growth) (Ehrlich ascites tumour; [7]): At injection site circular branched tumour
- Section day 17: ascites (Ehrlich ascites tumour; Exp 8 mouse 6: 1.13 μl 20 mM i.p., first injection 24 h after tumour (37.7 μM i.p.), control 6.8 ml): 3.15 mL
- Section day 17: ascites (Ehrlich ascites tumour; Exp 8 mouse 6: 1.13 μl 20 mM i.p., first injection 24 h after tumour (37.7 μM i.p.), control 6.8 ml, listed as 4-OH—OPB): 3.2 ml ascites, inj. site
- Result (tumour growth) (Ehrlich ascites tumour; Exp 8 mouse 6: 1.13 μl 20 mM i.p., first injection 24 h after tumour (37.7 μM i.p.), listed as 4-OH—OPB): Ascites (0.47 of contr.) + solid
- Tumour size, Day 8 (Ehrlich ascites tumour; [8]): Tumour = grain
- Tumour size, Day 10 (Ehrlich ascites tumour; [8]): Tumour > grain
- Ascites relative to control (Ehrlich ascites tumour; [9]): 0.00022 % of contr.
- Day 15 status (Ehrlich ascites tumour; [9]): lens-sized
- Day 15 weight (Ehrlich ascites tumour; [9]): 30.5 gram
- Day 15 weight/initial weight (Ehrlich ascites tumour; [9]): 1.00
- Section day 17: ascites (Ehrlich ascites tumour; [9]): 0.015 mL
- Section day 17: solid tumour (Ehrlich ascites tumour; [9]): pea-sized
- Result (tumour growth) (Ehrlich ascites tumour; [10]): Ascites; also recorded: contr.) + solid
- Section day 17: ascites (Ehrlich ascites tumour; [10]): site, 15 μl ascites,
- Section day 17: solid tumour (Ehrlich ascites tumour; [10]): Pea-size tumour at inj.
- tumour in abdominal wall, findings on section (Ehrlich ascites tumour; Exp 18, at killing, control 2 × 3 mm tumour): Lens sized
- ascites with Ehrlich cells, findings on section (Ehrlich ascites tumour; Exp 18, at killing, control 4 ml): 0.1 mL
- day 14 status (Ehrlich ascites tumour; Exp 18, day 14 after ip transplantation, mouse 1 killed, mice 2 and 3 marked '?'): Ascites
- weight gain in % (Ehrlich ascites tumour; Exp 18, one mouse each, ip: mouse 1 4-OH—OPB from day 1, mouse 2 Etoposide + 4-OH—OPB from day 1, mouse 3 Colchicine from day 0, control mouse 42.4): 32.3%
- Rescue of mice from transplanted Ehrlich tumour (Ehrlich ascites tumour; Exp 18): missing cure
- Rescue of mice from transplanted Ehrlich tumour (Ehrlich ascites tumour; Exp 18, listed as 4-OH—OPB): not rescued. Colchicine alone in high dose did
